Experimental data from US12377103B2, “Use of bromodomain-containing protein 9 inhibitors to treat and/or prevent uterine leiomyosarcoma” (The University of Chicago, priority 2022, dated 2025).

How the values were obtained:
[1] = tested on: macrophages; settings: cited from earlier work
[2] = tested on: ovarian cancer; settings: associated with cell cycle arrest, apoptosis induction, metabolic alterations; cited from earlier work
[3] = tested on: endometrial cancer cells; settings: cited from earlier work
[4] = tested on: SW48 colon cancer cells; settings: cited from earlier work
[5] = target: CECR2 BRD (Homo sapiens, UniProt Q9BXF3); settings: within cells; cited from earlier work
[6] = tested on: SK-UT-1 cells; assay: qRT-PCR validation of cell cycle and apoptosis genes; type: cell-based, human; settings: iBRD9 treatment
Description: Total RNA was isolated using Trizol reagent (Invitrogen, Carlsbad, CA, USA). The concentration of total RNA was determined using NanoDrop (Thermo Scientific, Waltham, MA, USA). One microgram of total RNA from each sample was reverse transcribed to complementary DNA (cDNA) using the High-Capacity cDNA Transcription Kit (Thermo Scientific, Waltham, MA, USA). Quantitative real-time polymerase chain reaction (qRT-PCR) was performed to determine the messenger RNA (mRNA) expression of several genes listed with their primer sequences in Table 2. The real-time PCR reactions were performed using CFX96 PCR instrument using SYBR Green Supermix (Bio-Rad, Hercules, CA, USA). 18S was used as an internal control. The results are presented as relative gene expression using CFX Maestro™. The assay was performed three times in triplicate.
Quantitative real-time PCR was performed to determine the mRNA expression of genes as described previously. An equal amount of cDNA from each sample was added to the Master mix containing appropriate primer sets and SYBR green supermix (Bio-Rad) in a 20 μL reaction volume. All samples were analyzed in triplicates. Real-time PCR analyses were performed using a Bio-Rad CFX96. Cycling conditions included denaturation at 95° C. for 2 min followed by 40 cycles of 95° C. for 5 s and 60° C. for 30 seconds then 65° C. for 5 seconds. […]

[7] = tested on: MES-SA cells; assay: Proliferation assay (trypan blue exclusion), MES-SA; type: cell-based, human; settings: 1-25 μM, 48 h, FIG. 4D
Description: (§1) The leiomyosarcoma (uLMS) cell line (SK-UT1, ATCC® HTB-114TM) (ATCC, Manassas, VA, USA) was cultured and maintained in ATCC-formulated Eagle's Minimum Essential Medium with 10% of fetal bovine serum. In addition, the uterine sarcoma cell line (MES-SA) (ATCC, Manassas, VA, USA) was cultured and maintained in McCoy's 5A medium. The immortalized human leiomyoma cell line (HuLM) and immortalized human uterine smooth muscle (UTSM) cells were a generous gift from Professor Darlene Dixon. The HuLM and UTSM cell lines were cultured and maintained in phenol red-free, Dulbecco's Modified Eagle Medium: Nutrient Mixture F-12. These cell lines, covering the spectrum from normal cell line (UTSM), benign uterine tumor cell line (HuLM), and uterine malignant cell lines (uLMS), were used to better understand the tumor progression linking to the BRD9 dysregulation in uLMS. BRD9 inhibitor (iBRD9) TP-472 was purchased from Tocris (Cat #6000, Minneapolis, MN, USA).
(§2) Cell proliferation was measured using trypan blue exclusion assay; 4 104 cells per well were seeded into 12-well tissue culture plates, treated with the iBRD9 (TP-472) at a dose range from 1-25 μM for 48 h. This assay was performed three times in triplicate.
(§3) Trypan blue exclusion assay was performed in SK-UT-1 and MES-SA cell lines treated for 48 h with TP-472 at dose ranges from 1-25 μM.

[8] = tested on: SK-UT-1 cells; assay: RNA-sequencing of TP-472 vs control treated SK-UT-1 cells; type: cell-based, human
Description: To determine the mechanism underlying the inhibitory effect of BRD9 inhibition on the uLMS, the SK-UT-1 cells were treated with iBRD9 TP-472 (5 μM) for 48 h. RNA was isolated using Trizol. RNA quality and quantity were assessed using the Agilent bio-analyzer. Strand-specific RNA-SEQ libraries were prepared using a TruSEQ total RNA-SEQ library protocol (Illumina provided). Library quality and quantity were assessed using the Agilent bio-analyzer and libraries were sequenced using an Illumina NovaSEQ6000 (illumine provided reagents and protocols).
A variety of R packages was used for this analysis. All graphics and data wrangling were handled using the tidyverse suite of packages. All packages used are available from the Comprehensive R Archive Network (CRAN), the Bioconductor project, or Github. The reads were mapped to the human reference transcriptome using STAR, version 2.6.1d (GitHub, Inc., San Francisco, CA, USA). The quality of raw reads, as well as the results of STAR mapping, are generated using fastqc and multiqc. Raw reads were mapped to the human reference transcriptome using Salmon, version 1.4.0. After reading mapping with Salmon, the tximport software package (Bioconductor project, accessed on 27 Oct. 2021) was used to read Salmon outputs into the R environment. Annotation data from Gencode V34 was used to summarize data from transcript-level to gene-level.
For Parsimonious gene correlation network analysis (PGCNA), normalized matrix of DEGs (Adjusted p-Values<0.05 and […]; n=3583) and the top 80% of the most variance genes across samples (n=10,848) were used to network construction. The matrix was used to calculate Spearman rank correlations for all gene pairs using the Python PGCNA2 package. For each gene (row) in a correlation matrix, only the three most correlated edges per gene were retained. The correlation matrices were clustered 100 times using the fast unfolding of communities in a large network's algorithm and the best (judged by modularity score) were used for downstream analysis. Gephi package with the ForceAt-1as2 layout method was used to visualize the network. Enrichment analyses were performed using the Enrichr web server (Ma′ayan lab at Icahn School of Medicine at Mount Sinai, accessed on 10 Jan. 2022) through EnrichR package in R software. Top biological process GO terms with the false discovery rate (FDR)[…] were analyzed using REVIGO to summarize and find a representative subset of the terms. STRING database (accessed on 27 Apr. 2022), which is the online search tool to protein-protein network (PPI) construction, was used to reconstruct each modules network (A combined score≥0.4 of PPI pairs was considered significant), then the Cytoscape software was employed to analyze the obtained networks. In addition, the Venn diagram online tool provided by VIB and Ghent University (accessed on 27 Apr. 2022) was used to investigate the intersection of DEGs and selected modules.
To determine the mechanistic action of TP-472 inhibition on uLMS cells, RNA-sequencing analysis was performed in control and TP-472 treated cells (n=4 each).

[9] = target: BRD9 (Homo sapiens, UniProt Q9H8M2); settings: cited from earlier work
[10] = tested on: SK-UT-1 cells; assay: Proliferation assay (trypan blue exclusion), SK-UT-1; type: cell-based, human; settings: 1-25 μM, 48 h, FIG. 4C
Description: as §1, §2, §3

[11] = tested on: melanoma; settings: by suppressing ECM-mediated oncogenic signaling and inducing apoptosis; cited from earlier work
[12] = tested on: BCL-2; assay: Western blot of BCL-2 protein levels in SK-UT-1 cells; type: cell-based, human; settings: dose-dependent manner, FIG. 4E-4F
Description: Cells were collected and lysed in RIPA lysis buffer with protease and phosphatase inhibitor cocktail (Thermo Scientific, Waltham, MA, USA), the protein was quantified using the Bradford method (Bio-Rad Protein Assay kit). The antigen—antibody complex was detected with Trident Femto Western HRP substrate (Gene-Tex, Irvine, CA, USA). Specific protein bands were visualized using ChemiDoc XRS ♭ molecular imager (Bio-Rad, Hercules, CA, USA).
as §3

[13] = SK-UT-1 cells, 5 μM, 48 h, n=4 each
[14] = module I, SK-UT-1, TP-472 5 μM 48 h vs control
[15] = module III, SK-UT-1, TP-472 5 μM 48 h vs control
[16] = module VI, SK-UT-1, TP-472 5 μM 48 h vs control
[17] = module VII, SK-UT-1, TP-472 5 μM 48 h vs control

Chain of CECR2 BRD (Q9BXF3 434-538 limits assumed): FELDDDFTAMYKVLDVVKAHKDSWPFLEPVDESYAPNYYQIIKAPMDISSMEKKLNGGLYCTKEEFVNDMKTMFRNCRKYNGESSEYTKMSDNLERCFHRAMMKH
Chain of BRD9 (Q9H8M2 whole entry): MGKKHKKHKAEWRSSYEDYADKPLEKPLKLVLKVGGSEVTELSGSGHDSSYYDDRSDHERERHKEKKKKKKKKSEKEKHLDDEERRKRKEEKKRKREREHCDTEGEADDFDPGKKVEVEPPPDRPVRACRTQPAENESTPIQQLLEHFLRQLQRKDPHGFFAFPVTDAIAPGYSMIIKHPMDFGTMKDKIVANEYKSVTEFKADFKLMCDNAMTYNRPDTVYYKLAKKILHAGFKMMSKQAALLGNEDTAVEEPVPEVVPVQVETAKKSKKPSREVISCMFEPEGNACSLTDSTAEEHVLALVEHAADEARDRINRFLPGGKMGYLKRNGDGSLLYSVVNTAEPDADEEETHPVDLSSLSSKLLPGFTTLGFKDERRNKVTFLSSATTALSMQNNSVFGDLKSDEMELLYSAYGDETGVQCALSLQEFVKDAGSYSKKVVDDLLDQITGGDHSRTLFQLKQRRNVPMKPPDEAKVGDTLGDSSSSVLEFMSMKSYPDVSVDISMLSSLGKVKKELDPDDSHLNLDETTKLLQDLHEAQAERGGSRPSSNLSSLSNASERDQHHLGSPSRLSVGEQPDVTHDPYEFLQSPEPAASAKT

Structure (SMILES): Cc1sc2c(c1C)C(c1ccc(Cl)cc1)=N[C@@H](CC(=O)OC(C)(C)C)c1nnc(C)n1-2 [JQ1]
- IL-6 and TNF levels [1]: reduce
- tumor growth in ovarian cancer [2]: suppresses tumor growth

Structure (SMILES): O=C1NC(=NCc2cccs2)S/C1=C\c1ccc2ncccc2c1 [RO3306]
- cell apoptosis and cell cycle in endometrial cancer cells [3]: induced cell apoptosis and caused G2/M phase arrest

Structure (SMILES): CCCS(=O)(=O)c1nc(NC2CC2)cc(-c2ccc3c(ccn3C3CC(C)(C)NC(C)(C)C3)c2)n1 [NVS-CECR2-1]
- cytotoxic activity against human cancer cells [4]: killing SW48 colon cancer cells by inducing apoptosis
- chromatin binding of CECR2 BRD [5]: inhibits

Structure (SMILES): CC(=O)c1cc(-c2cc(C(=O)NC3CC3)ccc2C)c2ncccn12 [TP-472]
- expression of CDKN1A by q-PCR ([6]; FIG. 7G): significant increase
- expression of BAK1 by q-PCR ([6]; FIG. 7H): significant increase
- effect on proliferation of MES-SA cells [7]: dose-dependent inhibitory effect
- mRNA levels of BAK ([8]; RNA-seq, treated SK-UT-1 cells vs control, FIG. 7B): significantly increased
- CDKN1A expression ([8]; RNA-seq, treated uLMS cells vs control, FIG. 7A): significantly higher
- expression of AKT1 ([8]; RNA-seq, treated uLMS cells, FIG. 7C): markedly decreased
- expression of AKT2 ([8]; RNA-seq, treated uLMS cells, FIG. 7D): significantly decreased
- expression of Gill ([8]; RNA-seq, uLMS cells, FIG. 7E): significantly decreased
- GLI2 expression ([8]; RNA-seq, uLMS cells, FIG. 7F): markedly reduced
- differentially expressed genes (DEGs), down [8, 13]: 1741
- differentially expressed genes (DEGs), total [8, 13]: 3583
- differentially expressed genes (DEGs), up [8, 13]: 1842
- FC of hub gene CEBPB [8, 14]: 1.75
- FC of hub gene EGR1 [8, 14]: 1.63
- FC of hub gene FOS [8, 14]: 1.50
- FC of hub gene GATA2 [8, 14]: 2.26
- FC of hub gene GRIN1 [8, 14]: 2.54
- FC of hub gene MYC [8, 14]: 1.56
- FC of hub gene SHH [8, 14]: 4.66
- FC of hub gene SOX9 [8, 14]: 2.02
- FC of hub gene STX1A [8, 14]: 1.78
- FC of hub gene TERT [8, 14]: 1.68
- FC of hub gene CCT2 [8, 15]: 1.61
- FC of hub gene CYCS [8, 15]: 1.86
- FC of hub gene EIF2S1 [8, 15]: 1.52
- FC of hub gene HSPA8 [8, 15]: 1.75
- FC of hub gene IMP3 [8, 15]: 1.62
- FC of hub gene NIP7 [8, 15]: 1.92
- FC of hub gene NOP56 [8, 15]: 1.64
- FC of hub gene NOP58 [8, 15]: 1.74
- FC of hub gene PA2G4 [8, 15]: 1.55
- FC of hub gene RPL26L1 [8, 15]: 1.58
- FC of hub gene BYSL [8, 16]: 1.75
- FC of hub gene CCND1 [8, 16]: 2.21
- FC of hub gene FN1 [8, 16]: 2.40
- FC of hub gene HRAS [8, 16]: 1.60
- FC of hub gene JUN [8, 16]: 3.13
- FC of hub gene KIT [8, 16]: 20.37
- FC of hub gene LEF1 [8, 16]: 6.22
- FC of hub gene MRTO4 [8, 16]: 2.16
- FC of hub gene PDCD11 [8, 16]: 1.69
- FC of hub gene RRP9 [8, 16]: 2.71
- FC of hub gene CDK1 [8, 17]: −1.56
- FC of hub gene CHEK2 [8, 17]: −1.69
- FC of hub gene FGF2 [8, 17]: −1.56
- FC of hub gene HLTF [8, 17]: −1.78
- FC of hub gene MIS18BP1 [8, 17]: −1.53
- FC of hub gene STAG2 [8, 17]: −1.51
- FC of hub gene TIA1 [8, 17]: −1.60
- FC of hub gene TOP2A [8, 17]: −1.52
- FC of hub gene TOP2B [8, 17]: −1.52
- FC of hub gene WDHD1 [8, 17]: −1.52
- potency for BRD9 [9]: high potency
- effect on proliferation of SK-UT-1 cells [10]: dose-dependent inhibitory effect
- tumor growth in melanoma [11]: blocked tumor growth
- protein levels of BCL-2 [12]: significantly decreased
